Data on one compound can be found in patent US4339535A, “Process for preparing antibiotic EM 4940” (E. R. Squibb & Sons, Inc., priority 1980, dated 1982).

In data set [1] the test system is Enterobacter cloacae. Nature of the data set: MIC aerobic screen, BA-2 agar. Conditions: Table II, additional tests; strain 10,459.
Data set [2] relates to Acinetobacter calcoaceticus. Kind of data set: MIC aerobic screen, BA-2 agar. Conditions: Table II, additional tests; strain 8333.
Data set [3] has as its system Escherichia coli. Kind of data set: MIC aerobic screen, BA-2 agar. The conditions noted are these: Table II, additional tests.
Data set [4] has as its system Serratia marcescens. Kind of data set: MIC aerobic screen, BA-2 agar. Conditions: Table II, additional tests.
The test system of data set [5] is Proteus rettgeri. Nature of the data set: MIC aerobic screen, BA-2 agar. The conditions noted are these: Table II, additional tests; strain 8217.
In data set [6] the test system is Klebsiella pneumoniae. Nature of the data set: MIC aerobic screen, BA-2 agar. The conditions noted are these: Table II, additional tests; strain 11,066.
For data set [7], the system named is Pseudomonas aeruginosa. Kind of data set: MIC aerobic screen, BA-2 agar. The conditions noted are these: Table II, additional tests.
In data set [8] the test system is Proteus morganii. Kind of data set: MIC aerobic screen, BA-2 agar. The conditions noted are these: Table II, additional tests; strain 9774.
Data set [9] deals with Shigella sonnei. Kind of data set: MIC aerobic screen, BA-2 agar. The conditions noted are these: Table II, additional tests; strain 8449. The class given is cell-based.
Data set [10] concerns Staphylococcus aureus. Kind of data set: MIC aerobic screen, BA-2 agar. The conditions noted are these: Table II, additional tests.
Data set [11] has as its system Klebsiella aerogenes. Kind of data set: MIC aerobic screen, BA-2 agar. Conditions: Table II, additional tests; strain 10,436.
In data set [12] the test system is Streptococcus faecalis. Nature of the data set: MIC aerobic screen, BA-2 agar. The conditions noted are these: Table II, additional tests; strain 9011.
A short description of data set [13]: solubility. The class given is physicochemical. The conditions noted are these: acetonitrile.
The subject of data set [14] is Salmonella typhimurium. Kind of data set: MIC aerobic screen, BA-2 agar. The conditions noted are these: Table II, additional tests; strain 9201.

On to `CC1(O)CC(C(N)=O)N=C1c1ncccc1O` (stereo not drawn) [EM4940B, 2,4-cis-3,4-dihydro-4-hydroxy-5-(3-hydroxy-2-pyridinyl)-4-methyl-2H-pyrrole-2-carboxamide], for which the “Minimum Inhibitory Concentration” value in data set [1] was 100 µg/mL; in data set [2], 100 µg/mL; in data set [3] (strain 10,404) it was 50 µg/mL; in data set [3] (strain 10,857), 50 µg/mL; in data set [4] (strain 9782), 50 µg/mL; in [4] (strain 11,111), 100 µg/mL. Besides, the “Minimum Inhibitory Concentration” value in data set [5] is 50 µg/mL; in [6], 50 µg/mL; in [7] (strain 8754) it was 100 µg/mL; in data set [7] (strain 9330), above 200 µg/mL; in [7] (strain 9545), 12.5 µg/mL; in [8], 100 µg/mL. Further, the “Minimum Inhibitory Concentration” value in data set [9] was 50 µg/mL; in data set [10] (strain 2400), above 200 µg/mL; in data set [10] (strain 2661), above 200 µg/mL; in data set [10] (strain 10,165), 100 µg/mL; in data set [10] (strain 11,239), 100 µg/mL; in data set [11] it was 50 µg/mL. Moreover, the “Minimum Inhibitory Concentration” value in data set [12] is above 200 µg/mL; in data set [14] it was 50 µg/mL. The “solubility of B form relative to A form” value in data set [13] is on record as “more soluble”.
